Measurements taken from ChEMBL document CHEMBL5143521, “Identification of a selective BRD4 PROTAC with potent antiproliferative effects in AR-positive prostate cancer based on a dual BET/PLK1 inhibitor” (Eur J Med Chem, 2022).
Active and inactive are the calls of the source. No cut-off for these calls is given here.

How the values were obtained:
[1] = molecular target: T1, Protein cereblon/Bromodomain-containing protein 4 (Homo sapiens) (UniProt O60885+Q96SW2); test: Protac activity at BRD4/CRBN in AR-positive human VCaP cells assessed as degradation of BRD4 by measuring downregulation of BRD4 expression level at 1 nM by Western blot analysis; assay type: cell-based; conditions: time 2-48 hrs, TDE = time-dependent effect
[2] = molecular target: Serine/threonine-protein kinase PLK1 (Homo sapiens, UniProt P53350); test: Inhibition of recombinant full length human PLK1 using casein as substrate incubated for 40 mins in presence of [gamma-33P]-ATP by radiometric scintillation counting method
[3] = molecular target: Bromodomain-containing protein 4 (Homo sapiens, UniProt O60885); test: Inhibition of BRD4 (unknown origin) by alpha-screen assay
[4] = molecular target: T1, Protein cereblon/Bromodomain-containing protein 4 (Homo sapiens); test: Protac activity at BRD4/CRBN in human VCaP cells assessed as degradation of BRD4 by measuring downregulation of BRD4 expression level at 10 nM incubated for 24 hrs by immunoblotting analysis; assay type: cell-based
[5] = tested on: LNCaP; test: Antiproliferative activity against AR-positive harmone sensitive human LNCaP cells assessed as reduction in cell viability measured after 4 days by MTT assay; assay type: functional, cell-based; conditions: 96 h
[6] = tested on: VCaP; test: Downregulation of c-Myc […] expression level in AR-positive human VCaP cells at 1 nM by Western blot analysis; assay type: functional, cell-based; conditions: time 2-48 hrs, TDE = time-dependent effect
[7] = molecular target: T1, Protein cereblon/Bromodomain-containing protein 4 (Homo sapiens); test: Protac activity at BRD4/CRBN in AR-positive human 22Rv1 cells assessed as degradation of BRD4 by measuring downregulation of BRD4 expression level measured after 24 hrs by Western blot analysis; assay type: cell-based; conditions: dose 1-10000 nM, DDE = dose-dependent effect
[8] = tested on: VCaP; test: Downregulation of c-Myc mRNA expression level in AR-positive human VCaP cells at 100 nM measured after 24 hrs by RT-qPCR analysis; assay type: functional, cell-based
[9] = tested on: VCaP; test: Downregulation of PSA protein expression in AR-positive human VCaP cells at 100 nM measured after 48 hrs by Western blot analysis; assay type: functional, cell-based
[10] = tested on: VCaP; test: Downregulation of PSA gene expression in AR-positive human VCaP cells at 100 nM measured after 24 hrs by RT-qPCR analysis; assay type: functional, cell-based
[11] = tested on: VCaP; test: Downregulation of ERG gene expression in AR-positive human VCaP cells at 100 nM measured after 24 hrs by RT-qPCR analysis; assay type: functional, cell-based
[12] = tested on: CWR22R; test: Induction of cell cycle arrest in AR-positive human 22Rv1 cells assessed as downregulation of CDK2 expression at 100 to 1000 nM measured after 72 hrs by Western blot analysis; assay type: functional, cell-based; conditions: dose 100-1000 nM
[13] = tested on: CWR22R; test: Induction of apoptosis in AR-positive human 22Rv1 cells assessed as increase in early apoptotic cells measured after 72 hrs by Annexin V-FITC/PI staining based flow cytometry method; assay type: functional, cell-based; conditions: dose 100-1000 nM, DDE = dose-dependent effect

T1 sequence (Q96SW2 whole entry, looked up, other chains not shown): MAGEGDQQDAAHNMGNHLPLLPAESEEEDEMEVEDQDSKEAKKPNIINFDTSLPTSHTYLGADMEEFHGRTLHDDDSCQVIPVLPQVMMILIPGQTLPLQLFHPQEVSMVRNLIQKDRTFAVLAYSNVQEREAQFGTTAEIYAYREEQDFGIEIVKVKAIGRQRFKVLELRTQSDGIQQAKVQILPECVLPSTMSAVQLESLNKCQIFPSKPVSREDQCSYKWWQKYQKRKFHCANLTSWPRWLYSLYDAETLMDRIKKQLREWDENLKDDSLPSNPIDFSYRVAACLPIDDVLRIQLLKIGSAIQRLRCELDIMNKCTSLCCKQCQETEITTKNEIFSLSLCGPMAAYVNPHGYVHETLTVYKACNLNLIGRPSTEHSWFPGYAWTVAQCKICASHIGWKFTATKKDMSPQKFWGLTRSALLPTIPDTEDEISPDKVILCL
Chain of Serine/threonine-protein kinase PLK1 (P53350 whole entry): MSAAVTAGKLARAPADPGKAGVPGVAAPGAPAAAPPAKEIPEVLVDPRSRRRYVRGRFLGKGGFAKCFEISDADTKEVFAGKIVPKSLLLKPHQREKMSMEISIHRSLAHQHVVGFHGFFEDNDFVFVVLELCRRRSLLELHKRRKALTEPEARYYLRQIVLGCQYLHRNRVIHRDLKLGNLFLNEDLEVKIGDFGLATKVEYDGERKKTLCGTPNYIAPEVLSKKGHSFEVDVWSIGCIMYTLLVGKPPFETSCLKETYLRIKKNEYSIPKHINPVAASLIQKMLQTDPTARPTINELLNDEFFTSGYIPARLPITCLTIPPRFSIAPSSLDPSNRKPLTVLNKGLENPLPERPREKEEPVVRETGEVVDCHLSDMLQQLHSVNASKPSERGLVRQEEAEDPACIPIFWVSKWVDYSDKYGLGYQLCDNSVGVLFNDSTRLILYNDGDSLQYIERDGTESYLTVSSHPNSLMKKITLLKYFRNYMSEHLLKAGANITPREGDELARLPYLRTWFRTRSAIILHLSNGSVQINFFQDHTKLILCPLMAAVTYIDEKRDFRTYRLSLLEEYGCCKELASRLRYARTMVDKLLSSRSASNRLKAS

In the case of `CC[C@@H]1c2nnc(C)n2-c2cnc(Nc3ccc(C(=O)NC4CCN(C(=O)COc5cccc6c5C(=O)N(C5CCC(=O)NC5=O)C6=O)CC4)cc3OC)nc2N1CC1CCCCC1` (stereo partly drawn), the Activity [1] is reported as “Tde”, the IC50 [2] is reported as 0.985 µM and the IC50 [3] is reported as 0.254 µM. For the same compound, the Activity [4] was “Active”, the IC50 [5] was 0.021 µM and the Activity [6] was “Tde”. The Activity [7] was “Dde”, the Activity [8] was “Active” and the Activity [9] was “Active”. For the same compound, the Activity [10] was “Active”, the Activity [11] was “Active” and the Activity [12] was “Active”. The Activity [13] was “Dde”.
